Like-named read-outs stand apart in the source and are kept apart here.
Experiments:
HIV [1] = settings: initial titer 9 log10
Experimental: A virus stock concentrate was prepared by infecting (CEM) cells at a multiplicity of infection of approximately 1. The cultures were established in 490 cm^2 Corning roller bottles containing approximately 450 ml of RPMI 1640 medium sufficient as is supplemented with 10% fetal bovine serum, penicillin, streptomycin, and 0.002 mg/ml polybrene. […] The total volume of the cultures was 1800 ml. […] The cultures were filtered through a 1.2 uM cellulose acetate filter. Virus was pelleted from the filtrate by centrifugation at 61,000×g for 4 hours at 4° C. The pelleted virus was resuspended with PBS (phosphate buffered saline solution).
Samples A, B and C were allowed to stand for 1 hour at 4° C. and sample D was allowed to stand for 1 hour at 25° C. Each sample was then centrifuged at 105,000×g for 90 minutes. The pellets were resuspended in 1 ml PBS and assayed for HIV by direct observation of the cytopathic effects of the virus on CEM cells. The assay method used in this example inherently rounds off titer to the nearest 0.5 log increment.

HIV [2] = test system: HIV; set-up: species or system Human Immunodeficiency Virus
Excerpt: The Factor IX solution obtained is further contacted with HIV virus to obtain a final titer of 8-9 log10 of virus. […]. The solution is then dialyzed to remove the chemical disinfectant and then filtered through a membrane with an effective porosity equivalent to 100 KD molecular weight cut off.

[3] = test system: Factor IX - deficient plasma; experiment: Factor IX activity by degree of correction in APTT time of Factor IX-deficient plasma; type: biochemical, human
Experimental: A purified Factor IX was obtained from PROTHAR® by chromatography on a monoclonal antibody affinity matrix specific to Factor IX. It contained approximately 0.065 milligrams of protein and 8 units of Factor IX activity per milliliter of solution. The purified preparation was ultrafiltered using an Amicon XM300 membrane and pressure of 5 p.s.i. The ultrafiltration proceeded very rapidly (about 2.5 ml/min). The filtrate was subsequently re-filtered through an Amicon XM100 membrane. The Factor IX activity in the final ultrafiltrate was 67%. Losses were not the result of Factor IX inactivation since specific activity was unaltered.
The product covered by this registered trademark of Armour Pharmaceutical is a stable lyophilized concentrate of human Factors II, VII, IX and X. It is prepared from pooled human plasma. Upon reconstitution it is a concentrated protein solution containing approximately 18 milligrams of total protein and 33 units of Factor IX activity per milliliter. The specific activity of Factor IX in the product ranges from 0 8-2.0 units per milligram of total protein.
In the first run, PROTHAR® was diluted 1:1 with 0.05M Tris-HCL, pH8.0. The resultant solution was ultrafiltered through an Amicon XM100 membrane (molecular weight cut-off of 100 K Daltons) using a pressure of 15 p.s.i. The ultrafiltration proceeded very slowly (about 0.25 ml/min), and the flow rate slowed as the protein inside the stirred cell became more concentrated. Only about 1% of the Factor IX activity found in the starting material appeared in the ultrafiltrate. […] Factor IX activity, in this and all other instances, is assayed by determining the degree of correction in APTT time of Factor IX - deficient plasma. J. H. Lenahan, Phillips and Phillips, Clin. Chem., Vol. 12, page 269 (1966).
Subsequent experiments were performed using an Amicon XM300 membrane (molecular weight cut-off of 300 K Daltons), pressures of 5 p.s.i., and reconstituted PROTHAR® dilutions of 1:6 and 1:10. Only about 17-19% of the Factor IX activity was found in the ultrafiltrate.

Compound	TOTAL LOG10 ID50 (found) (HIV [1]; Sample A: final NaSCN 1.5, 1 hour, 4° C.) [LOG10 ID50]	TOTAL LOG10 ID50 (found) (HIV [1]; Sample B: final NaSCN 2.0, 1 hour, 4° C.) [LOG10 ID50]	TOTAL LOG10 ID50 (found) (HIV [1]; Sample C: final NaSCN 3.0, no buffer, 1 hour, 4° C.) [LOG10 ID50]	TOTAL LOG10 ID50 (found) (HIV [1]; Sample D: final NaSCN 2.0, 1 hour, 25° C.) [LOG10 ID50]	titer of HIV infectivity (HIV [2])	F.IX recovered ([3]; Example 5, 100 KD molecular weight cut-off filtration)	Factor IX activity recovered ([3]; Example 6, dialysis and 100 KD cut-off filtration)	specific activity after ultrafiltration ([3]; affinity-purified Factor IX, XM300 then XM100 membrane)	Factor IX activity in the final ultrafiltrate ([3]; affinity-purified Factor IX, XM300 then XM100 membrane, 5 p.s.i.) [%]	active Factor IX content, of the initial value ([3]; after 0.1% tri(n-butyl)phosphate and 1% Tween 80) [%]	specific activity ([3]; pre-purified by chromatography on a monoclonal antibody affinity matrix)	Factor IX activity per milliliter of solution ([3]; purified Factor IX, approximately 0.065 milligrams of protein per milliliter) [units per milliliter]	HIV titer after dialysis and filtration (HIV [2]; 100 KD cut-off membrane, after NaSCN treatment)
N#CS [NaSCN, sodium thiocyanate]	1.0	1.0	1.0	1.0	undetectable levels								
Factor IX: purified Factor IX obtained from PROTHAR by chromatography on a monoclonal antibody affinity matrix specific to Factor IX						80-100%	80-100%	unaltered	67	> 80	≤ 190 units/mg of protein	~8	further reduced
